Assay results reported in ChEMBL document CHEMBL1201862, “PubChem BioAssay data set” (2004).
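In this assay, cells in 96-well plates receive the compound at five concentrations for 48 hours. Endpoints are linearly interpolated between the surrounding concentrations. Here, GI50 denotes the concentration required for 50% inhibition of growth.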 Activity calls are given as the source filed them. Cut-off read from the data, not from the text of the source: active = GI50 up to about 1.1 µM and inactive = higher.

How the values were obtained:
Test in all cases: NCI anticancer screen, dose series, 48 h
HOP-92 = system: HOP-92
SK-MEL-5 = system: SK-MEL-5
SNB-19 = system: SNB-19
SK-MEL-28 = system: SK-MEL-28
UO-31 = system: UO-31
ACHN = system: ACHN
OVCAR-8 = system: OVCAR-8
IGROV-1 = system: IGROV-1
TK-10 = system: TK-10
HCT-116 = system: HCT-116
A549 = system: A549
UACC-257 = system: UACC-257
M14 = system: M14
NCI-H522 = system: NCI-H522
RXF 393 = system: RXF 393
HCC 2998 = system: HCC 2998

Row | Compound | GI50 (HOP-92) | GI50 (SK-MEL-5) | GI50 (SNB-19) | GI50 (SK-MEL-28) | GI50 (UO-31) | GI50 (ACHN) | GI50 (OVCAR-8) | GI50 (IGROV-1) | GI50 (TK-10) | GI50 (HCT-116) | GI50 (A549) | GI50 (UACC-257) | GI50 (M14) | GI50 (NCI-H522) | GI50 (RXF 393) | GI50 (HCC 2998)
1 | CSc1nc(NC2OC(COC(C)=O)C(OC(C)=O)C(OC(C)=O)C2OC(C)=O)c(-c2csc(N)n2)c(=O)n1C (configuration not stated) | 23.5 µM (inactive) | 57.5 µM (inactive) | 56.6 µM (inactive) | 37.7 µM (inactive) | 24.6 µM (inactive) | 31.5 µM (inactive) | 26.1 µM (inactive) | 34.1 µM (inactive) | > 100 µM (inactive) | 31 µM (inactive) | 43.4 µM (inactive) | 32.9 µM (inactive) | 39.1 µM (inactive) | 56.2 µM (inactive) |  | 
2 | CC1CCSC(N(C(=O)N(C)c2ccccc2)c2ccccc2)=N1 (configuration not stated) |  | > 100 µM (inactive) | > 100 µM (inactive) | > 100 µM (inactive) | > 100 µM (inactive) | > 100 µM (inactive) | > 100 µM (inactive) | > 100 µM (inactive) | > 100 µM (inactive) | > 100 µM (inactive) | > 100 µM (inactive) | > 100 µM (inactive) | > 100 µM (inactive) | > 100 µM (inactive) | > 100 µM (inactive) | > 100 µM (inactive)
3 | COc1ccc(C2CC(=O)c3c(O)cc(O)cc3O2)cc1O (configuration not stated) |  | > 100 µM (inactive) | > 100 µM (inactive) | > 100 µM (inactive) | 58.7 µM (inactive) | > 100 µM (inactive) | > 100 µM (inactive) | > 100 µM (inactive) | > 100 µM (inactive) | > 100 µM (inactive) | > 100 µM (inactive) | > 100 µM (inactive) | > 100 µM (inactive) | > 100 µM (inactive) |  | > 100 µM (inactive)
4 | NC(=O)NC1C(C(=O)O)N(Cc2ccccc2)C(=O)N1Cc1ccccc1 (configuration not stated) | > 100 µM (inactive) | > 100 µM (inactive) | > 100 µM (inactive) | > 100 µM (inactive) | > 100 µM (inactive) | > 100 µM (inactive) | > 100 µM (inactive) | > 100 µM (inactive) | > 100 µM (inactive) | > 100 µM (inactive) | > 100 µM (inactive) | > 100 µM (inactive) | > 100 µM (inactive) | > 100 µM (inactive) |  | > 100 µM (inactive)
5 | COc1ccc2c(c1)CCc1c-2nc2cc3c(cc2c1O)OCO3 | > 100 µM (inactive) | > 100 µM (inactive) | > 100 µM (inactive) | > 100 µM (inactive) | > 100 µM (inactive) | > 100 µM (inactive) | > 100 µM (inactive) | > 100 µM (inactive) | > 100 µM (inactive) | > 100 µM (inactive) | > 100 µM (inactive) |  | > 100 µM (inactive) | > 100 µM (inactive) | > 100 µM (inactive) | > 100 µM (inactive)
6 | COC(=O)CSc1nnc(-c2ccc(O)c([N+](=O)[O-])c2)[nH]1 | > 100 µM (inactive) | > 100 µM (inactive) | > 100 µM (inactive) | > 100 µM (inactive) | > 100 µM (inactive) | > 100 µM (inactive) | > 100 µM (inactive) | > 100 µM (inactive) | > 100 µM (inactive) | > 100 µM (inactive) | > 100 µM (inactive) | > 100 µM (inactive) | > 100 µM (inactive) |  | > 100 µM (inactive) | > 100 µM (inactive)
7 | Fc1cccc2cc3ccc4cccc5ccc(c12)c3c45 |  | > 100 µM (inactive) | > 100 µM (inactive) | > 100 µM (inactive) | > 100 µM (inactive) | > 100 µM (inactive) | > 100 µM (inactive) | > 100 µM (inactive) | 0.721 µM (active) | > 100 µM (inactive) | > 100 µM (inactive) | > 100 µM (inactive) | > 100 µM (inactive) | > 100 µM (inactive) | > 100 µM (inactive) | 7.52 µM (inactive)
8 | CN(C)C(=S)/N=c1\ss/c(=N\C(=S)N(C)C)n1-c1ccc(Cl)c(Cl)c1 |  | > 100 µM (inactive) | > 100 µM (inactive) | > 100 µM (inactive) | > 100 µM (inactive) | > 100 µM (inactive) | > 100 µM (inactive) | > 100 µM (inactive) | > 100 µM (inactive) | > 100 µM (inactive) | > 100 µM (inactive) | > 100 µM (inactive) | > 100 µM (inactive) | > 100 µM (inactive) | 89.9 µM (inactive) | > 100 µM (inactive)
9 | COC(=O)C(=O)C(C#N)c1cccc2ccccc12 (configuration not stated) | > 100 µM (inactive) | > 100 µM (inactive) | > 100 µM (inactive) | > 100 µM (inactive) | > 100 µM (inactive) | > 100 µM (inactive) | > 100 µM (inactive) | > 100 µM (inactive) |  | > 100 µM (inactive) | > 100 µM (inactive) | > 100 µM (inactive) | > 100 µM (inactive) | > 100 µM (inactive) |  | > 100 µM (inactive)
